Laboratory results published in patent publication EP4722207A1, “OXOISOINDOLINYL-SUBSTITUTED TETRAHYDROPYRIMIDINEDIONE DERIVATIVE AND USE THEREOF” (Gluetacs Therapeutics (Shanghai) Co., Ltd., priority 2023, dated 2024).

Columns and labels:
Assay type in all cases: cell-based
GSPT1 = biological target: T1, GSPT1 (Homo sapiens, UniProt P15170+Q96SW2); assay: Western-blot assay, substrate protein degradation in hPBMCs: GSPT1; details: for GSPT1 substrate protein remaining %: compounds at 50 nM and 500 nM, 24 hours; for substrate protein remaining % GSPT1: 24 hours of compound treatment, 50 nM and 500 nM
T1 construct: effects of the compounds of the present disclosure on the expression of target proteins in cells; endogenous in cells; host or cells: human PBMCs (hPBMCs)

WEE1 = biological target: T2, WEE1 (Homo sapiens, UniProt P30291+Q96SW2); assay: Western-blot assay, substrate protein degradation in hPBMCs: WEE1; details: for WEE1 substrate protein remaining %: compounds at 50 nM and 500 nM, 24 hours; for substrate protein remaining % WEE1: 24 hours of compound treatment, 50 nM and 500 nM
T2 construct: effects of the compounds of the present disclosure on the expression of target proteins in cells; endogenous in cells; host or cells: human PBMCs (hPBMCs)

IKZF2 = biological target: T3, IKZF2 (Homo sapiens, UniProt Q96SW2+Q9UKS7); assay: Western-blot assay, substrate protein degradation in hPBMCs: IKZF2; details: for IKZF2 substrate protein remaining %: compounds at 50 nM and 500 nM, 24 hours; for substrate protein remaining % IKZF2: 24 hours of compound treatment, 50 nM and 500 nM
T3 construct: effects of the compounds of the present disclosure on the expression of target proteins in cells; endogenous in cells; host or cells: human PBMCs (hPBMCs)

IKZF3 = biological target: T4, IKZF3 (Homo sapiens, UniProt Q96SW2+Q9UKT9); assay: Western-blot assay, substrate protein degradation in hPBMCs: IKZF3; details: for IKZF3 substrate protein remaining %: compounds at 50 nM and 500 nM, 24 hours; for substrate protein remaining % IKZF3: 24 hours of compound treatment, 50 nM and 500 nM
T4 construct: effects of the compounds of the present disclosure on the expression of target proteins in cells; endogenous in cells; host or cells: human PBMCs (hPBMCs)

CK1α = biological target: T5, CK1α (Homo sapiens, UniProt P48729+Q96SW2); assay: Western-blot assay, substrate protein degradation in hPBMCs: CK1α; details: for CK1α substrate protein remaining %: compounds at 50 nM and 500 nM, 24 hours; for substrate protein remaining % CK1α: 24 hours of compound treatment, 50 nM and 500 nM
T5 construct: effects of the compounds of the present disclosure on the expression of target proteins in cells; endogenous in cells; host or cells: human PBMCs (hPBMCs)

IKZF1 = biological target: T6, IKZF1 (Homo sapiens, UniProt Q13422+Q96SW2); assay: Western-blot assay, substrate protein degradation in hPBMCs: IKZF1; details: for IKZF1 substrate protein remaining %: compounds at 50 nM and 500 nM, 24 hours; for substrate protein remaining % IKZF1: 24 hours of compound treatment, 50 nM and 500 nM
T6 construct: effects of the compounds of the present disclosure on the expression of target proteins in cells; endogenous in cells; host or cells: human PBMCs (hPBMCs)

T1 sequence (P15170 whole entry): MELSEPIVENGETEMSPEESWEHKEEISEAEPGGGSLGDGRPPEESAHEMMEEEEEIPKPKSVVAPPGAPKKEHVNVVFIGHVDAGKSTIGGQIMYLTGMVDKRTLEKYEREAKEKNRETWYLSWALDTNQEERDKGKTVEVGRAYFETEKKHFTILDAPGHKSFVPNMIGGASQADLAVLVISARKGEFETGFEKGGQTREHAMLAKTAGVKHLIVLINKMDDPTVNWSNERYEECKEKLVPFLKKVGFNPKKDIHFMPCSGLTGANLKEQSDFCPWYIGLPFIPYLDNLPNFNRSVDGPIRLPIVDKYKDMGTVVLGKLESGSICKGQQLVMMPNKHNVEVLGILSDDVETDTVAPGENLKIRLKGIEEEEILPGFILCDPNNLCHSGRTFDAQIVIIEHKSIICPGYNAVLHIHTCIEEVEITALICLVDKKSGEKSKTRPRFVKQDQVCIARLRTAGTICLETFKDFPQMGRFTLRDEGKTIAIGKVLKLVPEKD
T1 sequence (Q96SW2 whole entry): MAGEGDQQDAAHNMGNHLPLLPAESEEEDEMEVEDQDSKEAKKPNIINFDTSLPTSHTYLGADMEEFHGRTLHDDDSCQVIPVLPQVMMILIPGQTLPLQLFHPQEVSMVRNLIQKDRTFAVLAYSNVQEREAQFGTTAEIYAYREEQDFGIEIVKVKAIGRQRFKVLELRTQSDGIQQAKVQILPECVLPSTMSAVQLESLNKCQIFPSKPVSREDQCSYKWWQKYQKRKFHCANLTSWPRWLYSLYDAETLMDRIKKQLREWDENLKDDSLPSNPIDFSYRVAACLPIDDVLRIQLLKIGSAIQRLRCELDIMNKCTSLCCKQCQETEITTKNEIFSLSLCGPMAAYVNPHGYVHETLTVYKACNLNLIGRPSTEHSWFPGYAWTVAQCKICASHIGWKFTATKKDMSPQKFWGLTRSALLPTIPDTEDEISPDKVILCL
T1 sequence (Q16531 whole entry partner): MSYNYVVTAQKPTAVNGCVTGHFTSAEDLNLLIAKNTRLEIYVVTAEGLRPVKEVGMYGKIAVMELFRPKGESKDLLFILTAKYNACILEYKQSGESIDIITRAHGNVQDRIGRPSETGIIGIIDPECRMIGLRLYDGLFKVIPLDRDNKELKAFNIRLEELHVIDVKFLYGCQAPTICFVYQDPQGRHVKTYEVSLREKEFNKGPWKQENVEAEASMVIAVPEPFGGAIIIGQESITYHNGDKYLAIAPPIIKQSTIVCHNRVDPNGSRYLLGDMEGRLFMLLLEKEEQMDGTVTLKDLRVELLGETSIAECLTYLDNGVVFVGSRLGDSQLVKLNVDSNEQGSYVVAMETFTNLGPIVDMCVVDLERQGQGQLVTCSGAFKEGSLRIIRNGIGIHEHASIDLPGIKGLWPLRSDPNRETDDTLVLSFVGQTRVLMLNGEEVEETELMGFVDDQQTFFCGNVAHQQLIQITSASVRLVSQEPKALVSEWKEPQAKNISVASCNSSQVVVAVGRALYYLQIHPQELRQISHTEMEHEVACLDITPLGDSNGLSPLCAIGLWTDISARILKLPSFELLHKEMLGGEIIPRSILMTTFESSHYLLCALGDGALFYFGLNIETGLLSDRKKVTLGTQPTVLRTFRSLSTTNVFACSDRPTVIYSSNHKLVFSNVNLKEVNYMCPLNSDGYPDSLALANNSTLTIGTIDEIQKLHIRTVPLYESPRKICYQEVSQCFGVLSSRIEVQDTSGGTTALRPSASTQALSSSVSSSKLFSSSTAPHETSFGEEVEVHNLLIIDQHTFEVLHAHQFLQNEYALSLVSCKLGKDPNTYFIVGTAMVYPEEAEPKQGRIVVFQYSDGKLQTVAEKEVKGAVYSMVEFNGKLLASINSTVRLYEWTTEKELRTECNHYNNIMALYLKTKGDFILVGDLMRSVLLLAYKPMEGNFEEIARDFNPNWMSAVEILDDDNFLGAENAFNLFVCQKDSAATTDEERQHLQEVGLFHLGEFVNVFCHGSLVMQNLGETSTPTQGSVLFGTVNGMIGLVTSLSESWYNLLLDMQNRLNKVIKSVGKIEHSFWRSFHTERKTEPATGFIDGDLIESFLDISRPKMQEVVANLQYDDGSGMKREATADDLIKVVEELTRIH
T2 sequence (P30291 whole entry): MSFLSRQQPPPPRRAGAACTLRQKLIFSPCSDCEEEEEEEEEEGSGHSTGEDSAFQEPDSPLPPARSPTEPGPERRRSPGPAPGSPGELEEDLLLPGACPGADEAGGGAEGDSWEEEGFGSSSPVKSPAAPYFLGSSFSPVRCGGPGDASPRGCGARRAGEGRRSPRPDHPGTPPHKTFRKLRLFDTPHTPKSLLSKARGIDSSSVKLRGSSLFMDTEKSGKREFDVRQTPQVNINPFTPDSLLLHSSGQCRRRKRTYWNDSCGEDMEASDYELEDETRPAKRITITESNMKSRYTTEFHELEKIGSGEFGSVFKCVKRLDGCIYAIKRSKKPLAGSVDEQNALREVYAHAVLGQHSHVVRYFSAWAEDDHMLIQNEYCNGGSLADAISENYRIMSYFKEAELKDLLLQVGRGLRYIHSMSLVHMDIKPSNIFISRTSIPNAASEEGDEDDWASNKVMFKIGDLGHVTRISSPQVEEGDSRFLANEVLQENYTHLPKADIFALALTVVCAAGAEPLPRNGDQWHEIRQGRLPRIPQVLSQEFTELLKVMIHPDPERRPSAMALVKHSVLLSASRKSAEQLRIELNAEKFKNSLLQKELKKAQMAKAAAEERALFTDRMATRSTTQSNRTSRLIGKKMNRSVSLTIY
T2 sequence (Q96SW2 whole entry): as the sequence (Q96SW2 whole entry) above
T2 sequence (Q16531 whole entry partner): as the sequence (Q16531 whole entry partner) above
T5 sequence (P48729 whole entry): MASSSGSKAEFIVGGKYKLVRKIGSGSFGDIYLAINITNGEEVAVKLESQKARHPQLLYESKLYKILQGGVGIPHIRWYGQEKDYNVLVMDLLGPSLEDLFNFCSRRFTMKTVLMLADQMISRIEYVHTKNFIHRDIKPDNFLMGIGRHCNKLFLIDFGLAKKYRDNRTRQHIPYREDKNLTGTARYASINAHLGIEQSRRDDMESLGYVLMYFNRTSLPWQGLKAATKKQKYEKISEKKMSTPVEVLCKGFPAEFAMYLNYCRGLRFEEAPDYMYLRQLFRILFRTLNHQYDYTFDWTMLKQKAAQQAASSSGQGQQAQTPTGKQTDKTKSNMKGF
T5 sequence (Q96SW2 whole entry): as the sequence (Q96SW2 whole entry) above
T5 sequence (Q16531 whole entry partner): as the sequence (Q16531 whole entry partner) above
T4 sequence (Q9UKT9 whole entry): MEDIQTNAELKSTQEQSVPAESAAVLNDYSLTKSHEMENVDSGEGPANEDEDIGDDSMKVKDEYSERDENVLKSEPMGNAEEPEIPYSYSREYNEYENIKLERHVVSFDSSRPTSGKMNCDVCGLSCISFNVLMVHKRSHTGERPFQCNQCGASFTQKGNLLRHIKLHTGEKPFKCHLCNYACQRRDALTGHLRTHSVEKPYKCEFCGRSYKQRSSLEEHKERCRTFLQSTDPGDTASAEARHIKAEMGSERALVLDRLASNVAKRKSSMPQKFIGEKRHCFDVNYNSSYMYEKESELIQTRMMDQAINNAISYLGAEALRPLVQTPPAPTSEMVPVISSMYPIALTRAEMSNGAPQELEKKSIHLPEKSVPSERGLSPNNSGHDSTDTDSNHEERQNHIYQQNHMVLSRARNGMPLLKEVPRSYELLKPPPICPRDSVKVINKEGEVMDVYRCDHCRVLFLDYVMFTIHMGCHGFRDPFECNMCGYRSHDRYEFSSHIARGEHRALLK
T4 sequence (Q96SW2 whole entry): as the sequence (Q96SW2 whole entry) above
T4 sequence (Q16531 whole entry partner): as the sequence (Q16531 whole entry partner) above
T3 sequence (Q9UKS7 whole entry): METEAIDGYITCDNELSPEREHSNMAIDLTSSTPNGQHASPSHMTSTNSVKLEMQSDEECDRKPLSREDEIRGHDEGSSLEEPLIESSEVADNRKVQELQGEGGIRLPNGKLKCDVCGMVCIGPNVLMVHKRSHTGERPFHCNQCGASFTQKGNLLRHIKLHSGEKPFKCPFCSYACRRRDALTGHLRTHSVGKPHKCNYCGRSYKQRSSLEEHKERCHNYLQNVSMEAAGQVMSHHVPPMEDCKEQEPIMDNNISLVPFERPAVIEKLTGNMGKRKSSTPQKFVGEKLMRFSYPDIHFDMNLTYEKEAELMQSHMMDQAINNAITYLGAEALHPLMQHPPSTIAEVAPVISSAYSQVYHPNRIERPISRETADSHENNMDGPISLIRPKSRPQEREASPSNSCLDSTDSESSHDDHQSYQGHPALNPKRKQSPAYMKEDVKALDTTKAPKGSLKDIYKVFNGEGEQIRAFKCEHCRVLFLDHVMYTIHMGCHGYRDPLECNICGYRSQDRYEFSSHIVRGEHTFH
T3 sequence (Q96SW2 whole entry): as the sequence (Q96SW2 whole entry) above
T3 sequence (Q16531 whole entry partner): as the sequence (Q16531 whole entry partner) above

| Structure (SMILES) | GSPT1 substrate protein remaining % (GSPT1) | WEE1 substrate protein remaining % (WEE1) | IKZF2 substrate protein remaining % (IKZF2) | IKZF3 substrate protein remaining % (IKZF3) | CK1α substrate protein remaining % (CK1α) | IKZF1 substrate protein remaining % (IKZF1) | substrate protein remaining % GSPT1 (GSPT1) | substrate protein remaining % WEE1 (WEE1) | substrate protein remaining % IKZF2 (IKZF2) | substrate protein remaining % IKZF3 (IKZF3) | substrate protein remaining % CK1α (CK1α) | substrate protein remaining % IKZF1 (IKZF1) |
| --- | --- | --- | --- | --- | --- | --- | --- | --- | --- | --- | --- | --- |
| Cc1ccccc1N1CCN(Cc2ccc3c(c2)CN(N2CCC(=O)NC2=O)C3=O)CC1 [GT-06769, 1-(1-oxo-5-((4-(o-tolyl)piperazin-1-yl)methyl)isoindolin-2-yl)dihydropyrimidine-2,4(1H,3H)-dione] | A ("A" is defined as 0% ≤ substrate protein remaining % ≤ 80%) | A ("A" is defined as 0% ≤ substrate protein remaining % ≤ 80%) | A ("A" is defined as 0% ≤ substrate protein remaining % ≤ 80%) | A ("A" is defined as 0% ≤ substrate protein remaining % ≤ 80%) | A ("A" is defined as 0% ≤ substrate protein remaining % ≤ 80%) | B ("B" is defined as 80%< substrate protein remaining %≤ 100%) | – | – | – | – | – | – |
| O=C1CCN(N2Cc3cc(CN4CCN(c5ccc(F)c(F)c5)CC4)ccc3C2=O)C(=O)N1 [GT-06781, 1-(5-((4-(3,4-difluorophenyl)piperazin-1-yl)methyl)-1-oxoisoindolin-2-yl)dihydropyrimidine-2,4(1H,3H)-dione] | A ("A" is defined as 0% ≤ substrate protein remaining % ≤ 80%) | B ("B" is defined as 80%< substrate protein remaining %≤ 100%) | B ("B" is defined as 80%< substrate protein remaining %≤ 100%) | B ("B" is defined as 80%< substrate protein remaining %≤ 100%) | A ("A" is defined as 0% ≤ substrate protein remaining % ≤ 80%) | B ("B" is defined as 80%< substrate protein remaining %≤ 100%) | – | – | – | – | – | – |
| CC1(C)CCC(CN2CC3CCC(C2)N3Cc2ccc3c(c2)CN(N2CCC(=O)NC2=O)C3=O)=C(c2ccc(Cl)cc2)C1 [GT-07330, 1-(5-((3-((4'-chloro-5,5-dimethyl-3,4,5,6-tetrahydro-[1,1'-biphenyl]-2-yl)methyl)-3,8-diazabicyclo[3.2.1]octan-8-yl)methyl)-1-oxoisoindolin-2-yl)dihydropyrimidine-2,4(1H,3H)-dione] | – | – | – | – | – | – | A (0% ≤ substrate protein remaining % ≤ 80%) | A (0% ≤ substrate protein remaining % ≤ 80%) | A (0% ≤ substrate protein remaining % ≤ 80%) | A (0% ≤ substrate protein remaining % ≤ 80%) | B (80%< substrate protein remaining %≤ 100%) | A (0% ≤ substrate protein remaining % ≤ 80%) |
| O=C1CCN(N2Cc3cc(CN4CCN(c5cc(F)ccc5F)CC4)ccc3C2=O)C(=O)N1 [GT-06779, 1-(5-((4-(2,5-difluorophenyl)piperazin-1-yl)methyl)-1-oxoisoindolin-2-yl)dihydropyrimidine-2,4(1H,3H)-dione] | B ("B" is defined as 80%< substrate protein remaining %≤ 100%) | B ("B" is defined as 80%< substrate protein remaining %≤ 100%) | B ("B" is defined as 80%< substrate protein remaining %≤ 100%) | B ("B" is defined as 80%< substrate protein remaining %≤ 100%) | A ("A" is defined as 0% ≤ substrate protein remaining % ≤ 80%) | B ("B" is defined as 80%< substrate protein remaining %≤ 100%) | – | – | – | – | – | – |
| O=C1CCN(N2C(=O)c3ccc(CN4CCC(=C5CCOc6cc(F)ccc65)CC4)cc3C2=O)C(=O)N1 [GT-07685, 2-(2,4-dioxotetrahydropyrimidin-1(2H)-yl)-5-((4-(7-fluorochroman-4-ylidene)piperidin-1-yl)methyl)isoindoline-1,3-dione] | – | – | – | – | – | – | A (0% ≤ substrate protein remaining % ≤ 80%) | B (80%< substrate protein remaining %≤ 100%) | B (80%< substrate protein remaining %≤ 100%) | B (80%< substrate protein remaining %≤ 100%) | B (80%< substrate protein remaining %≤ 100%) | B (80%< substrate protein remaining %≤ 100%) |
| O=C1CCN(N2Cc3cc(CN4CCN(c5ncc(C(F)(F)F)cc5Cl)CC4)ccc3C2=O)C(=O)N1 [GT-05433, 1-(5-((4-(3-chloro-5-(trifluoromethyl)pyridin-2-yl)piperazin-1-yl)methyl)-1-oxoisoindolin-2-yl)dihydropyrimidine-2,4(1H,3H)-dione] | A ("A" is defined as 0% ≤ substrate protein remaining % ≤ 80%) | A ("A" is defined as 0% ≤ substrate protein remaining % ≤ 80%) | B ("B" is defined as 80%< substrate protein remaining %≤ 100%) | B ("B" is defined as 80%< substrate protein remaining %≤ 100%) | B ("B" is defined as 80%< substrate protein remaining %≤ 100%) | B ("B" is defined as 80%< substrate protein remaining %≤ 100%) | A (0% ≤ substrate protein remaining % ≤ 80%) | A (0% ≤ substrate protein remaining % ≤ 80%) | A (0% ≤ substrate protein remaining % ≤ 80%) | B (80%< substrate protein remaining %≤ 100%) | B (80%< substrate protein remaining %≤ 100%) | B (80%< substrate protein remaining %≤ 100%) |
| O=C1CCN(N2C(=O)c3ccc(CN4CCC(c5cccs5)CC4)cc3C2=O)C(=O)N1 [GT-07424, 2-(2,4-dioxotetrahydropyrimidin-1(2H)-yl)-5-((4-(thiophen-2-yl)piperidin-1-yl)methyl)isoindoline-1,3-dione] | – | – | – | – | – | – | A (0% ≤ substrate protein remaining % ≤ 80%) | A (0% ≤ substrate protein remaining % ≤ 80%) | B (80%< substrate protein remaining %≤ 100%) | A (0% ≤ substrate protein remaining % ≤ 80%) | B (80%< substrate protein remaining %≤ 100%) | A (0% ≤ substrate protein remaining % ≤ 80%) |
| O=C1CCN(N2C(=O)c3ccc(CN4CCN(c5ccsc5)CC4)cc3C2=O)C(=O)N1 [GT-05313, 2-(2,4-dioxotetrahydropyrimidin-1(2H)-yl)-5-((4-(thiophen-3-yl)piperazin-1-yl)methyl)isoindoline-1,3-dione] | A ("A" is defined as 0% ≤ substrate protein remaining % ≤ 80%) | B ("B" is defined as 80%< substrate protein remaining %≤ 100%) | B ("B" is defined as 80%< substrate protein remaining %≤ 100%) | B ("B" is defined as 80%< substrate protein remaining %≤ 100%) | B ("B" is defined as 80%< substrate protein remaining %≤ 100%) | B ("B" is defined as 80%< substrate protein remaining %≤ 100%) | – | – | – | – | – | – |
| O=C1CCN(N2C(=O)c3ccc(CN4C5CC4CN(c4cccc(Cl)c4Cl)C5)cc3C2=O)C(=O)N1 [GT-05251, 5-((3-(2,3-dichlorophenyl)-3,6-diazabicyclo[3.1.1]heptan-6-yl)methyl)-2-(2,4-dioxotetrahydropyrimidin-1(2H)-yl)isoindoline-1,3-dione] | B ("B" is defined as 80%< substrate protein remaining %≤ 100%) | B ("B" is defined as 80%< substrate protein remaining %≤ 100%) | A ("A" is defined as 0% ≤ substrate protein remaining % ≤ 80%) | B ("B" is defined as 80%< substrate protein remaining %≤ 100%) | B ("B" is defined as 80%< substrate protein remaining %≤ 100%) | B ("B" is defined as 80%< substrate protein remaining %≤ 100%) | – | – | – | – | – | – |
| O=C1CCN(N2Cc3cc(CN4CCC(c5ccnc6cc(F)ccc56)CC4)ccc3C2=O)C(=O)N1 [GT-07645, 1-(5-((4-(7-fluoroquinolin-4-yl)piperidin-1-yl)methyl)-1-oxoisoindolin-2-yl)dihydropyrimidine-2,4(1H,3H)-dione] | – | – | – | – | – | – | A (0% ≤ substrate protein remaining % ≤ 80%) | B (80%< substrate protein remaining %≤ 100%) | B (80%< substrate protein remaining %≤ 100%) | B (80%< substrate protein remaining %≤ 100%) | B (80%< substrate protein remaining %≤ 100%) | A (0% ≤ substrate protein remaining % ≤ 80%) |
| O=C1CCN(N2C(=O)c3ccc(CN4CCN(C(c5ccccc5)c5cccnc5)CC4)cc3C2=O)C(=O)N1 (stereo not drawn) [GT-06377, 2-(2,4-dioxotetrahydropyrimidin-1(2H)-yl)-5-((4-(phenyl(pyridin-3-yl)methyl)piperazin-1-yl)methyl)isoindoline-1,3-dione] | B ("B" is defined as 80%< substrate protein remaining %≤ 100%) | A ("A" is defined as 0% ≤ substrate protein remaining % ≤ 80%) | A ("A" is defined as 0% ≤ substrate protein remaining % ≤ 80%) | B ("B" is defined as 80%< substrate protein remaining %≤ 100%) | B ("B" is defined as 80%< substrate protein remaining %≤ 100%) | B ("B" is defined as 80%< substrate protein remaining %≤ 100%) | – | – | – | – | – | – |
